Reference: PubChem BioAssay (NCI)
Several values for one entry are separate records, joined by “and”; a condition that tells them apart may be missing. Equal entries are not always repeated.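 Following 48 hours of exposure in 96-well plates, responses at five concentrations were used to interpolate endpoints linearly. At the GI50, growth is halved. TGI denotes the concentration required for complete inhibition of growth.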

Legend:
Assay in all cases: DTP human tumour cell line panel, 48 h
[1] = test system: BT-549 breast
[2] = test system: MDA-MB-231 breast
[3] = test system: MDA-MB-435
[4] = test system: MCF7 breast
[5] = test system: NCI/ADR-RES ovarian
[6] = test system: LXFL 529 NSCLC
[7] = test system: KM20L2 colon
[8] = test system: DLD-1 colon
[9] = test system: SNB-78 CNS

Q: What does the source list for COc1cccc(C(=O)Nc2ccc(CN3CCc4nc5cc(OC)c(OC)cc5cc43)cc2)c1?
A: GI50 [1]: 5.32 µM; TGI [1]: 22.8 µM; GI50 [2]: 2.59 µM; TGI [2]: 11 µM; GI50 [3]: 3.47 µM; TGI [3]: 19.3 µM; GI50 [4]: 3.19 µM; TGI [4]: 20.5 µM; GI50 [5]: 4.48 µM; TGI [5]: > 100 µM

Q: How did the TGI [6] turn out when COc1ccc(C2=Nc3ccccc3SC(C)C2)cc1 (stereo not drawn) was run?
A: > 100 µM

Q: What about the TGI [7] of the same molecule?
A: > 100 µM

Q: What about the TGI [8] of the same molecule?
A: > 100 µM

Q: What about the TGI [9] of the same molecule?
A: > 100 µM

Q: For CCOC(=O)C1=C(C)NC2SC(=O)/C(=C\c3ccccc3Cl)N2C1c1ccccc1 (stereo not drawn), which GI50 [1] is on record?
A: > 100 µM

Q: What about the TGI [1] of the same molecule?
A: > 100 µM

Q: What about the GI50 [2] of the same molecule?
A: > 100 µM

Q: And the TGI [2]?
A: > 100 µM

Q: What about the GI50 [3] of the same molecule?
A: > 100 µM

Q: And the TGI [3]?
A: > 100 µM

Q: What about the GI50 [4] of the same molecule?
A: > 100 µM

Q: And the TGI [4]?
A: > 100 µM

Q: What about the GI50 [5] of the same molecule?
A: > 100 µM

Q: And the TGI [5]?
A: > 100 µM

Q: Which results are given for O=[N+]([O-])c1cc([N+](=O)[O-])c(Cl)c(Cl)c1Cl?
A: GI50 [1]: 8.84 µM; TGI [1]: 21 µM; GI50 [2]: 1.71 µM; TGI [2]: 3.24 µM; GI50 [3]: 1.72 µM; TGI [3]: 3.33 µM; GI50 [5]: 2.87 µM; TGI [5]: > 100 µM

Q: What does the source list for COc1cc2ccccc2c2cc([N+](=O)[O-])oc12?
A: TGI [1]: 7.16 µM; TGI [2]: 5.8 µM; TGI [3]: 0.733 µM; TGI [4]: 15.8 µM; TGI [5]: 32.1 µM

Q: What does the source list for COC(=O)CCC(C)[C@H]1CCC2C3C(C[C@H](OC(C)=O)[C@@]21C)[C@@]1(C)CCC2(C[C@H]1C[C@H]3OC(C)=O)OOC1(CCC(C)CC1)OO2 (stereo partly drawn)?
A: GI50 [1]: 6.42 µM and 57 µM; TGI [1]: > 100 µM; TGI [2]: > 100 µM; GI50 [3]: 10.9 µM and 43.4 µM; TGI [3]: > 100 µM; GI50 [4]: 5.62 µM and 38.4 µM; TGI [4]: > 100 µM; TGI [5]: > 100 µM

Q: For Cc1onc(-c2c(F)cccc2Cl)c1-c1ncc(-c2ccc(Cl)cc2)o1, which GI50 [1] is on record?
A: 6.5 µM

Q: And the TGI [1]?
A: > 100 µM

Q: And the GI50 [2]?
A: 6.5 µM

Q: What about the TGI [2] of the same molecule?
A: > 100 µM

Q: And the GI50 [3]?
A: 5.59 µM

Q: And the TGI [3]?
A: > 100 µM

Q: What about the GI50 [4] of the same molecule?
A: 4.49 µM

Q: What about the TGI [4] of the same molecule?
A: > 100 µM

Q: And the GI50 [5]?
A: 5.08 µM

Q: And the TGI [5]?
A: > 100 µM

Q: What does the source list for C=CCC1C(=O)C(C(=O)OC)N2CCc3c([nH]c4ccccc34)C12 (stereo not drawn)?
A: TGI [6]: > 100 µM; TGI [7]: > 100 µM; TGI [8]: > 100 µM

Q: Which TGI [1] does the source give for Cc1cc(=O)oc2c(CN3CCCCC3)c(O)ccc12 here?
A: > 100 µM

Q: What about the TGI [2] of the same molecule?
A: > 100 µM

Q: And the TGI [3]?
A: > 100 µM

Q: And the TGI [4]?
A: > 100 µM

Q: And the TGI [5]?
A: > 100 µM

Q: With COc1c(C2=NC(C(C)C)CO2)ccc2ccccc12 (stereo not drawn) as the molecule, how does the TGI [6] read?
A: > 100 µM

Q: What about the TGI [7] of the same molecule?
A: > 100 µM

Q: What about the TGI [8] of the same molecule?
A: > 100 µM

Q: What about the TGI [9] of the same molecule?
A: > 100 µM

Q: For COc1ccc(-c2nn(-c3ccc(NC(=O)c4ccc(Cl)c(C(F)(F)F)c4)cc3)cc2-c2ccncc2)cc1Cl, which GI50 [1] is on record?
A: 1.16 µM

Q: What about the TGI [1] of the same molecule?
A: 96.9 µM

Q: And the GI50 [2]?
A: 0.317 µM

Q: What about the TGI [2] of the same molecule?
A: 1.35 µM

Q: And the GI50 [3]?
A: 1.16 µM

Q: What about the TGI [3] of the same molecule?
A: > 100 µM

Q: And the GI50 [4]?
A: 1.59 µM

Q: And the TGI [4]?
A: > 100 µM

Q: And the GI50 [5]?
A: 2.07 µM

Q: And the TGI [5]?
A: > 100 µM

Q: With O=c1oc2cc(N=Cc3ccccc3Cl)ccc2c2ccccc12 as the molecule, how does the TGI [1] read?
A: > 100 µM

Q: And the TGI [2]?
A: > 100 µM

Q: What about the TGI [3] of the same molecule?
A: > 100 µM

Q: What about the TGI [4] of the same molecule?
A: > 100 µM

Q: What about the TGI [5] of the same molecule?
A: > 100 µM

Q: What does the source list for O=S(=O)(Nc1cc(Br)c(O)c2ccccc12)c1ccc(F)cc1?
A: GI50 [1]: 8.45 µM; TGI [1]: 21.2 µM; GI50 [2]: 2.1 µM; TGI [2]: 5.5 µM; GI50 [3]: 1.82 µM; TGI [3]: 3.3 µM; GI50 [5]: 2.96 µM; TGI [5]: 8.68 µM

Q: Cc1cc(N2CCN(C)CC2)nc(NCc2cc(Nc3ccnc4cc(Cl)ccc34)ccc2F)n1 was tested. Which GI50 [1] did it give?
A: 2.13 µM

Q: What about the TGI [1] of the same molecule?
A: 4.64 µM

Q: And the GI50 [3]?
A: 1.76 µM

Q: And the TGI [3]?
A: 3.9 µM

Q: And the GI50 [4]?
A: 0.334 µM

Q: What about the TGI [4] of the same molecule?
A: 2.75 µM

Q: How did the GI50 [1] turn out when COc1ccc(C[n+]2c3ccccc3n3c4ccc(N)cc4ccc32)c(OC)c1OC was run?
A: 2.42 µM

Q: And the TGI [1]?
A: 16.5 µM

Q: And the GI50 [2]?
A: 9.25 µM

Q: And the TGI [2]?
A: 31.7 µM

Q: And the GI50 [3]?
A: 2.92 µM

Q: And the TGI [3]?
A: 13.5 µM

Q: What about the GI50 [4] of the same molecule?
A: 1.11 µM

Q: And the TGI [4]?
A: 26.1 µM

Q: And the GI50 [5]?
A: > 100 µM

Q: And the TGI [5]?
A: > 100 µM

Q: What does the source list for N#CC(C#N)=Cc1c(-c2ccccc2)[nH]c2ccccc12?
A: GI50 [1]: 8.45 µM; TGI [1]: > 100 µM; GI50 [2]: 1.42 µM; TGI [2]: 30.3 µM; GI50 [3]: 0.248 µM; TGI [3]: 0.736 µM; GI50 [4]: 1.07 µM; TGI [4]: > 47.2 µM; GI50 [5]: 0.82 µM; TGI [5]: > 45.2 µM

Q: With N=Nc1c(OC(=O)Nc2ccccc2)[nH]c2ccccc12 as the molecule, how does the TGI [1] read?
A: 27.6 µM

Q: And the TGI [2]?
A: 41.6 µM

Q: And the TGI [3]?
A: 45.1 µM

Q: And the TGI [4]?
A: 38.8 µM

Q: What about the TGI [5] of the same molecule?
A: > 100 µM

Q: Which TGI [6] does the source give for Cc1c(C(=O)CC(=O)C(=O)Nc2c(C(C)C)cccc2C(C)C)[n+](=O)c2ccccc2n1[O-] here?
A: 23.4 µM

Q: What about the TGI [7] of the same molecule?
A: 15.9 µM

Q: What about the TGI [9] of the same molecule?
A: 41.3 µM

Q: How did the GI50 [1] turn out when COc1cc(-c2nn(-c3ccc(NC(=O)Nc4ccc(Cl)c(Cl)c4)cc3)cc2-c2ccncc2)ccc1Cl was run?
A: 3.35 µM

Q: What about the TGI [1] of the same molecule?
A: 11.2 µM

Q: And the GI50 [2]?
A: 2.62 µM

Q: What about the TGI [2] of the same molecule?
A: 7.7 µM

Q: And the GI50 [3]?
A: 2.87 µM

Q: And the TGI [3]?
A: 8.8 µM

Q: What about the GI50 [4] of the same molecule?
A: 3.35 µM

Q: What about the TGI [4] of the same molecule?
A: > 100 µM

Q: And the GI50 [5]?
A: 3.24 µM

Q: What about the TGI [5] of the same molecule?
A: > 100 µM

Q: What does the source list for Oc1c(C(Nc2cccc3ccccc23)c2ccccc2)ccc2cccnc12 (stereo not drawn)?
A: GI50 [1]: 2.07 µM; TGI [1]: 14.5 µM; GI50 [2]: 12 µM; TGI [2]: 70.8 µM; GI50 [3]: 5 µM; TGI [3]: > 100 µM; GI50 [4]: 3.2 µM; TGI [4]: > 100 µM; GI50 [5]: 2.17 µM; TGI [5]: 8.29 µM

Q: How did the TGI [1] turn out when CCNC(C)(C)C(SS)c1ccc(Br)cc1 (stereo not drawn) was run?
A: > 100 µM

Q: What about the TGI [2] of the same molecule?
A: > 100 µM

Q: What about the TGI [3] of the same molecule?
A: > 100 µM

Q: And the TGI [4]?
A: > 100 µM

Q: And the TGI [5]?
A: > 100 µM

Q: CNC(=S)N/N=C1\CC(c2ccccc2)Oc2ccccc21 (stereo not drawn) was tested. Which TGI [6] did it give?
A: > 100 µM

Q: What about the TGI [8] of the same molecule?
A: > 100 µM

Q: And the TGI [9]?
A: > 100 µM

Q: With CN(Cc1cnc(N)nc1N)c1ccc(C(=O)O)cc1 as the molecule, how does the GI50 [1] read?
A: > 100 µM

Q: And the TGI [1]?
A: > 100 µM

Q: And the GI50 [2]?
A: > 100 µM

Q: And the TGI [2]?
A: > 100 µM

Q: What about the GI50 [3] of the same molecule?
A: > 100 µM

Q: And the TGI [3]?
A: > 100 µM

Q: And the GI50 [4]?
A: > 100 µM

Q: What about the TGI [4] of the same molecule?
A: > 100 µM

Q: What about the GI50 [5] of the same molecule?
A: > 100 µM

Q: What about the TGI [5] of the same molecule?
A: > 100 µM

Q: Which GI50 [1] does the source give for COc1cc(/C=N/Nc2ncnc3c2cnn3C(C)C)ccc1O here?
A: > 20.4 µM

Q: What about the TGI [1] of the same molecule?
A: > 25 µM

Q: And the GI50 [2]?
A: 6.27 µM

Q: And the TGI [2]?
A: > 25 µM

Q: And the GI50 [3]?
A: 7.66 µM

Q: What about the TGI [3] of the same molecule?
A: > 25 µM

Q: What about the GI50 [4] of the same molecule?
A: 4.68 µM

Q: What about the TGI [4] of the same molecule?
A: 16.1 µM

Q: What about the GI50 [5] of the same molecule?
A: 6.95 µM

Q: What about the TGI [5] of the same molecule?
A: > 25 µM

Q: For NC1=NC(c2ccc(Cl)cc2)N(c2ccc(S(=O)(=O)Nc3ncccn3)cc2)C(N)=N1 (stereo not drawn), which TGI [1] is on record?
A: > 100 µM

Q: And the TGI [2]?
A: > 100 µM

Q: What about the TGI [3] of the same molecule?
A: > 100 µM

Q: What about the TGI [4] of the same molecule?
A: > 100 µM

Q: And the TGI [5]?
A: > 100 µM

Q: What does the source list for Clc1ccccc1C(n1ncc2ccccc21)n1ncc2ccccc21?
A: TGI [6]: > 100 µM; TGI [8]: > 100 µM; TGI [9]: > 100 µM

Q: [N-]=[N+]=Nc1ccc(CCN2CCN(c3cccc(C(F)(F)F)c3)CC2)cc1I was tested. Which TGI [6] did it give?
A: > 100 µM

Q: And the TGI [7]?
A: > 100 µM

Q: And the TGI [9]?
A: > 100 µM
